Data published in ChEMBL document CHEMBL3991601, “The target landscape of clinical kinase drugs” (Science, 2017).
Activity calls are given as the source filed them.

How the values were obtained:
[1] = biological target: Protein kinase C theta type (Homo sapiens, UniProt Q04759)
[2] = biological target: Serine/threonine-protein kinase 38-like (Homo sapiens, UniProt Q9Y2H1)
[3] = biological target: T1, Tyrosine-protein kinase Mer (Homo sapiens, UniProt Q12866)
T1 sequence (Q12866 whole entry): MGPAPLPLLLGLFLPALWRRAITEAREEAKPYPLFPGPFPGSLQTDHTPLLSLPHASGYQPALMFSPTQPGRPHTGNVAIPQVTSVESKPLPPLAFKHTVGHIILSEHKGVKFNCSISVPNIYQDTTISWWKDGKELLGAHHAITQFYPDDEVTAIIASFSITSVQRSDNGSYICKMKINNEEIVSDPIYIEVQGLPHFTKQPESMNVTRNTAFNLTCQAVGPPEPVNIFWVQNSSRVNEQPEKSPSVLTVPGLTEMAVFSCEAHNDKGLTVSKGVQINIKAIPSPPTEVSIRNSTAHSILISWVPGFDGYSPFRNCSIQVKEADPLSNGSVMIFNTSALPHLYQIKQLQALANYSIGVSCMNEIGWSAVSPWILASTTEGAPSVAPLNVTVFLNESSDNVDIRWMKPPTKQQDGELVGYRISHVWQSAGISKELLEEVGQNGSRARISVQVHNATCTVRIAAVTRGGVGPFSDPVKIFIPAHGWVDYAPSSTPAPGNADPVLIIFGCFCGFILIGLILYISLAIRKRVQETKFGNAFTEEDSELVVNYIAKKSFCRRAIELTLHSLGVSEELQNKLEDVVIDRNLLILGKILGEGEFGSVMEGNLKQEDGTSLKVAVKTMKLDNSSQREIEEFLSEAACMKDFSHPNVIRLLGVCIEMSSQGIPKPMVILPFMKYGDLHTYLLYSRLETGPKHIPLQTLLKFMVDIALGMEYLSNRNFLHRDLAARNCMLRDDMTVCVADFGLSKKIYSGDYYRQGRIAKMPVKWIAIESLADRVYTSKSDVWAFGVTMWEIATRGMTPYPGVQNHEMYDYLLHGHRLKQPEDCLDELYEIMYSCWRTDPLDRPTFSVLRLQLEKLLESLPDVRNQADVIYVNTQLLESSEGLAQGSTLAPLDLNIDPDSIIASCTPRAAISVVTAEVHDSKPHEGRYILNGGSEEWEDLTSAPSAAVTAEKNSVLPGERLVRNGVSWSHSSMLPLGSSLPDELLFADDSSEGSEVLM

[4] = biological target: Cyclin-dependent kinase 17 (Homo sapiens, UniProt Q00537)
Misshapen-like kinase 1 = Misshapen-like kinase 1 (Homo sapiens, UniProt Q8N4C8)
[5] = biological target: T2, Isoleucine--tRNA ligase, mitochondrial (Homo sapiens, UniProt Q9NSE4)
T2 sequence (Q9NSE4 whole entry): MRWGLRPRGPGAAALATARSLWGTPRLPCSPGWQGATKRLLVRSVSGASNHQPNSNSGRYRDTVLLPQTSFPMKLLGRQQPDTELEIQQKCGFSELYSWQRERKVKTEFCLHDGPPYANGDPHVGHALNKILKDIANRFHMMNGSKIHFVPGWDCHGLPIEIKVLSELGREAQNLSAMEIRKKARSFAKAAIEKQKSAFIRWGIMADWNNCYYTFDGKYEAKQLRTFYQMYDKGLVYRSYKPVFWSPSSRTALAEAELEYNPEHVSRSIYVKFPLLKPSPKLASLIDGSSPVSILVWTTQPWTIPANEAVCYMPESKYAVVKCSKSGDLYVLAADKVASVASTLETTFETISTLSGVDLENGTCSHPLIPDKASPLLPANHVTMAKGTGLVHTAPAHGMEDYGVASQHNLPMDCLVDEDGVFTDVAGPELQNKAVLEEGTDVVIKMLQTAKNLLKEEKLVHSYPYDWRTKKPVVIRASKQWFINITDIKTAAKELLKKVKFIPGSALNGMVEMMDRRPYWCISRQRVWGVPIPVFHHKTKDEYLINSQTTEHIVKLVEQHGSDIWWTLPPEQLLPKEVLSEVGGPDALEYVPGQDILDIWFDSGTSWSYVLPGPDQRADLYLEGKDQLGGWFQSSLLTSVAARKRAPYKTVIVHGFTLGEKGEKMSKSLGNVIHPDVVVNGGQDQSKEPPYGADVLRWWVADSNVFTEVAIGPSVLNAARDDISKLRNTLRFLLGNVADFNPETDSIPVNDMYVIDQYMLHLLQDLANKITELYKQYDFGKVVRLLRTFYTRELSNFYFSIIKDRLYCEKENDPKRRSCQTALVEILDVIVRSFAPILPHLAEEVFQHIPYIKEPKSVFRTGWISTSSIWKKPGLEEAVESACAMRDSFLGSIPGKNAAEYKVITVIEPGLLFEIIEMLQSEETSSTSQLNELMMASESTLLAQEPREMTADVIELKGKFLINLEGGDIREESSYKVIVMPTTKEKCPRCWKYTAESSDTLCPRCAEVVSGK

[6] = biological target: Eukaryotic peptide chain release factor GTP-binding subunit ERF3B (Homo sapiens, UniProt Q8IYD1)
Eukaryotic peptide chain release factor GTP-binding subunit ERF3B, sequence (Q8IYD1 whole entry): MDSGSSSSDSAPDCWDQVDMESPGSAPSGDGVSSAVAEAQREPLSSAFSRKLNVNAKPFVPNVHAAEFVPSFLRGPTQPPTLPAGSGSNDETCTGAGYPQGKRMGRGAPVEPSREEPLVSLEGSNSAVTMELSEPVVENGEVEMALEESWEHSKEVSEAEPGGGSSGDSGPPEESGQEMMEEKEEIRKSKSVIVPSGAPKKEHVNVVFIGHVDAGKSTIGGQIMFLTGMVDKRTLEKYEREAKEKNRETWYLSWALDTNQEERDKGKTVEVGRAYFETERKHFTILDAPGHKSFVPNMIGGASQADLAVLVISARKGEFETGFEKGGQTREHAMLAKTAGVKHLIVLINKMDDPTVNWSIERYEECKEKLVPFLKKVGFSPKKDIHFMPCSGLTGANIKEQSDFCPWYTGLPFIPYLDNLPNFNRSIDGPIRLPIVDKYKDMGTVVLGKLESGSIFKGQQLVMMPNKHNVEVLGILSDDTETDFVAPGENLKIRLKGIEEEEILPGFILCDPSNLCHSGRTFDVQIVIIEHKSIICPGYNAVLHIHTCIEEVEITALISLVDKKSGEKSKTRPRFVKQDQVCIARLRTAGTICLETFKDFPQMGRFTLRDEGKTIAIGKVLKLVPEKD

[7] = biological target: Cyclin-dependent kinase 10 (Homo sapiens, UniProt Q15131)
Cyclin-dependent kinase 10, sequence (Q15131 whole entry): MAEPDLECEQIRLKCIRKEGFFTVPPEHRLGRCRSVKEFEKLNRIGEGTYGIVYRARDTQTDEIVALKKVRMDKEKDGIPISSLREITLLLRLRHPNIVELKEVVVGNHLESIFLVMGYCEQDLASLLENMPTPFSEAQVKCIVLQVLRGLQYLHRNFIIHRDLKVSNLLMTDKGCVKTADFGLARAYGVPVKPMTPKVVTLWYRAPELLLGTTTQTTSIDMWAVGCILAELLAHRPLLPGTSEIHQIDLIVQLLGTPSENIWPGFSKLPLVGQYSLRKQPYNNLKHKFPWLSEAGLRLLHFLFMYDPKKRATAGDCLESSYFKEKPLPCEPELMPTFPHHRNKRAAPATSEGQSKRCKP

[8] = biological target: Dual specificity testis-specific protein kinase 1 (Homo sapiens, UniProt Q15569)
[9] = biological target: Hepatocyte growth factor receptor (Homo sapiens, UniProt P08581)
[10] = biological target: Tyrosine-protein kinase Fgr (Homo sapiens, UniProt P09769)
Tyrosine-protein kinase Fgr, sequence (P09769 whole entry): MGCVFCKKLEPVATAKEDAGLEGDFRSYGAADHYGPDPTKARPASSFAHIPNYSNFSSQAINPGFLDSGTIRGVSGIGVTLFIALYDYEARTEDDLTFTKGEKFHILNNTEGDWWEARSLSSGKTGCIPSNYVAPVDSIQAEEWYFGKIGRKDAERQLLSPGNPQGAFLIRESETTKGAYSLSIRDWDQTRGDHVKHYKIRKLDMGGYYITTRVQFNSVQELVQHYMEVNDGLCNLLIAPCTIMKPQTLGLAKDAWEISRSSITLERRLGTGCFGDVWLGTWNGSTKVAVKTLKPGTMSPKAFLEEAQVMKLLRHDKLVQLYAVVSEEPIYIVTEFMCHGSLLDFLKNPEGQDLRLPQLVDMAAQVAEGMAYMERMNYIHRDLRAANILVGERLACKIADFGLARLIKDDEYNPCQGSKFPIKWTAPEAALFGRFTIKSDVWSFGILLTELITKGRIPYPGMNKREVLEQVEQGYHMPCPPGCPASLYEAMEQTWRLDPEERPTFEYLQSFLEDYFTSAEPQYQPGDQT

[11] = biological target: Serine/threonine-protein kinase ATR (Homo sapiens, UniProt Q13535)
Serine/threonine-protein kinase ATR, sequence (Q13535 whole entry): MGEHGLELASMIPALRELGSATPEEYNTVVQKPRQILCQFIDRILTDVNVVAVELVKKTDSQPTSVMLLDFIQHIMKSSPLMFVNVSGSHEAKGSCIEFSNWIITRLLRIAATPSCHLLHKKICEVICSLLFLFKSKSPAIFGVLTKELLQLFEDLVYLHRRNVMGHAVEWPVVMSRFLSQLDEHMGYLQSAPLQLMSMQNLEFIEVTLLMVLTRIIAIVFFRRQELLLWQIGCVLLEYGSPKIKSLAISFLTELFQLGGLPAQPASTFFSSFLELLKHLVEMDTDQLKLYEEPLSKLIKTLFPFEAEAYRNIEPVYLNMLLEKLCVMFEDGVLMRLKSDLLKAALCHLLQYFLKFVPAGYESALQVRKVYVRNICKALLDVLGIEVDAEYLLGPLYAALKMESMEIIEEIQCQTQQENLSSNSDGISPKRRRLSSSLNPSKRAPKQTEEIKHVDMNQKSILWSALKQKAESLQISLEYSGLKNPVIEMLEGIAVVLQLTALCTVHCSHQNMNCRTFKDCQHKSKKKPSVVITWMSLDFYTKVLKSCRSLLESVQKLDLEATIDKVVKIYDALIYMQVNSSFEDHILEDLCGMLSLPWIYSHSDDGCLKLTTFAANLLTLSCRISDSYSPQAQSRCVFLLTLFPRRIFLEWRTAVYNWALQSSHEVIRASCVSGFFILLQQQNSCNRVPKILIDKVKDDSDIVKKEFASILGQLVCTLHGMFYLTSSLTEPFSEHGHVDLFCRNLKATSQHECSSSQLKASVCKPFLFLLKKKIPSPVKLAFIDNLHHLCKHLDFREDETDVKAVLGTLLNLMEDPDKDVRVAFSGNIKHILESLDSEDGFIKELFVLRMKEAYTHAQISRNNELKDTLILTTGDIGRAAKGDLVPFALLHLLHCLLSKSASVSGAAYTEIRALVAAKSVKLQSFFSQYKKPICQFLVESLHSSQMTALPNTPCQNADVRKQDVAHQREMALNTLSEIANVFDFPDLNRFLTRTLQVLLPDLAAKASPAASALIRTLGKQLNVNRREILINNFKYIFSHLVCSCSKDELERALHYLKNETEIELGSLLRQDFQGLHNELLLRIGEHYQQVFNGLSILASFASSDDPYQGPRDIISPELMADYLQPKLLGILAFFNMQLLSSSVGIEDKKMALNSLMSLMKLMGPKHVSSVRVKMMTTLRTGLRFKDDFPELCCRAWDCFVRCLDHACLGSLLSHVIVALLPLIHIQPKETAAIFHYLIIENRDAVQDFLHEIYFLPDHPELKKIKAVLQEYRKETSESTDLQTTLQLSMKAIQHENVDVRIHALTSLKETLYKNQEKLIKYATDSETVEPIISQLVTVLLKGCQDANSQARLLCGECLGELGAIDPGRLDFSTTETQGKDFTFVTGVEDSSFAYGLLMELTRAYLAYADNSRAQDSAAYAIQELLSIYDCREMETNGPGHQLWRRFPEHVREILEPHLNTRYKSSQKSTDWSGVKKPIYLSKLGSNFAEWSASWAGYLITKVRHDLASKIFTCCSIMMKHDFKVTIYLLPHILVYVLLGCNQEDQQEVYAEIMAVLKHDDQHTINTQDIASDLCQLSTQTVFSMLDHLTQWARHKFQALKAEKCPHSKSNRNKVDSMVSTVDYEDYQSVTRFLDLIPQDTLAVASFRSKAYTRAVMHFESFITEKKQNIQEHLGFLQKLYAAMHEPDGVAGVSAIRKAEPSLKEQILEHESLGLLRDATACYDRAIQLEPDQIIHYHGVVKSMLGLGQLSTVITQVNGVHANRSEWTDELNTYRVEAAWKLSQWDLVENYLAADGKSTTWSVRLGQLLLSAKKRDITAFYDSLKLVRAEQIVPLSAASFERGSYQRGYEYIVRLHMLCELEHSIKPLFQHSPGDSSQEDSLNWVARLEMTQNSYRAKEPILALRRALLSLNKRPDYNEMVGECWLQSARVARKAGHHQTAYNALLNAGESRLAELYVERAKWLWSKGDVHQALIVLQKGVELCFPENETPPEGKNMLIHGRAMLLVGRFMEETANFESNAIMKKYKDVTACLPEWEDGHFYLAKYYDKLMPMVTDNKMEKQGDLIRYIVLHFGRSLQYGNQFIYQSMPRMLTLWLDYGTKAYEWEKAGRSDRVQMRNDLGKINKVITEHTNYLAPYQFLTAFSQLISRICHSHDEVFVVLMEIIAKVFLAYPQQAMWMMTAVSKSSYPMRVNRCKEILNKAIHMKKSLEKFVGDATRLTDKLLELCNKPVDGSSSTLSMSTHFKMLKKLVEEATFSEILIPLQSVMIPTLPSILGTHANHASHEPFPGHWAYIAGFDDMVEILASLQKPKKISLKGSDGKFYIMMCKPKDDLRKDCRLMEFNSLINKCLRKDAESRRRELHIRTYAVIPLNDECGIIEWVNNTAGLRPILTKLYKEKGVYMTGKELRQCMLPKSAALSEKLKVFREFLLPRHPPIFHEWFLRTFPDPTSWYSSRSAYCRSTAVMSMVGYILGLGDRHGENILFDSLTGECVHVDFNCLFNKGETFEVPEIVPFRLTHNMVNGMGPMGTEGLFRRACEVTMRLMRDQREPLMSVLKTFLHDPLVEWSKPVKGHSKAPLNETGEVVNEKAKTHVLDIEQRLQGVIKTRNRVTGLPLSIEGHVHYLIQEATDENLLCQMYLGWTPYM

[12] = biological target: MAP kinase-activated protein kinase 3 (Homo sapiens, UniProt Q16644)
MAP kinase-activated protein kinase 3, sequence (Q16644 whole entry): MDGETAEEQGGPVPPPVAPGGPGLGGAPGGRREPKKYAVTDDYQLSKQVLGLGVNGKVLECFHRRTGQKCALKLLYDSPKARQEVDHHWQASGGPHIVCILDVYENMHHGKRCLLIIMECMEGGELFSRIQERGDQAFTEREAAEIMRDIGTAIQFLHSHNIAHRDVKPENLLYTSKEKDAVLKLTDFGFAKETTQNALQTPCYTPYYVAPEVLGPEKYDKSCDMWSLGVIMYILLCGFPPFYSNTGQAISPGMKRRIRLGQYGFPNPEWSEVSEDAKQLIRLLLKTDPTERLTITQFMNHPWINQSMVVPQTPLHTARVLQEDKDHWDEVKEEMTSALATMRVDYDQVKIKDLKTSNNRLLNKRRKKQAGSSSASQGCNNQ

[13] = biological target: Serine/threonine-protein kinase 38 (Homo sapiens, UniProt Q15208)
Also: in the data inactive means no Kd found up to 30 µM.

Serine/threonine-protein kinase 38-like, sequence (Q9Y2H1 whole entry): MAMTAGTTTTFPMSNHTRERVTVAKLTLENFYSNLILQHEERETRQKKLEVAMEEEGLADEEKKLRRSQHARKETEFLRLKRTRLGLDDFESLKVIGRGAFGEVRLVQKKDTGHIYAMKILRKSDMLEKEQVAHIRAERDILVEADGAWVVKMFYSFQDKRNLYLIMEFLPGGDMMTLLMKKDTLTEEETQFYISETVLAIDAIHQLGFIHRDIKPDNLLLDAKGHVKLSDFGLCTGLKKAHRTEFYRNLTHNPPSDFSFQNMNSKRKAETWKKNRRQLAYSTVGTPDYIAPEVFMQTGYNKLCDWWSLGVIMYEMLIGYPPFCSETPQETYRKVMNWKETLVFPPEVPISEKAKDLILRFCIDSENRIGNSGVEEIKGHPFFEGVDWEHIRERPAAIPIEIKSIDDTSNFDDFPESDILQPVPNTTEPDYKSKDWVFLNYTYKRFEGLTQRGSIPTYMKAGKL

Compound | Kd [1] | Kd [2] | Kd [3] | Kd [4] | Kd (Misshapen-like kinase 1) | Kd [5] | Kd [6] | Kd [7] | Kd [8] | Kd [9] | Kd [10] | Kd [11] | Kd [12] | Kd [13]
O=c1sn(-c2cccc3ccccc23)c(=O)n1Cc1ccccc1 [TIDEGLUSIB] | > 30 µM (inactive) | > 30 µM (inactive) | > 30 µM (inactive) | > 30 µM (inactive) | > 30 µM (inactive) | > 30 µM (inactive) | > 30 µM (inactive) | > 30 µM (inactive) | > 30 µM (inactive) |  |  |  |  | 
Cn1cc(-c2ccc3nnc(C(F)(F)c4ccc5ncccc5c4)n3n2)cn1 [JNJ-38877605] | > 30 µM (inactive) |  |  | > 30 µM (inactive) |  |  |  | > 30 µM (inactive) | > 30 µM (inactive) | 0.002 µM (active) | > 30 µM (inactive) | > 30 µM (inactive) |  | 
COc1cc2nccc(Oc3ccc(NC(=O)Nc4cc(C)on4)c(Cl)c3)c2cc1OC [TIVOZANIB] | > 30 µM (inactive) | > 30 µM (inactive) | > 30 µM (inactive) | > 30 µM (inactive) | > 30 µM (inactive) | > 30 µM (inactive) |  | > 30 µM (inactive) | > 30 µM (inactive) |  |  | > 30 µM (inactive) |  | 
COC(=O)[C@@]1(O)C[C@H]2O[C@]1(C)n1c3ccccc3c3c4c(c5c6ccccc6n2c5c31)C(=O)NC4 [K-252A] |  | 2.14 µM (active) | 0.041 µM | > 30 µM (inactive) | > 30 µM (inactive) |  |  | > 30 µM (inactive) | > 30 µM (inactive) | > 30 µM (inactive) |  |  | > 30 µM (inactive) | > 30 µM (inactive)
CNC(=O)c1ccc(-c2cnc3ncc(Cc4ccc5ncccc5c4)n3n2)cc1F [CAPMATINIB] | > 30 µM (inactive) |  | > 30 µM (inactive) | > 30 µM (inactive) | > 30 µM (inactive) | > 30 µM (inactive) | > 30 µM (inactive) |  | > 30 µM (inactive) |  |  | > 30 µM (inactive) |  | > 30 µM (inactive)
CCn1c(=O)c(-c2cc[nH]n2)cc2c(C)nc(N)nc21 [VOXTALISIB] | > 30 µM (inactive) |  |  |  |  | > 30 µM (inactive) | > 30 µM (inactive) |  | > 30 µM (inactive) |  |  |  |  | > 30 µM (inactive)
CNC(=O)c1cc(Oc2ccc(NC(=O)Nc3ccc(Cl)c(C(F)(F)F)c3)c(F)c2)ccn1 [REGORAFENIB] | > 30 µM (inactive) |  |  | 0.719 µM (active) |  | > 30 µM (inactive) |  | > 30 µM (inactive) |  | > 30 µM (inactive) | > 30 µM (inactive) |  |  | 
Cc1cc(Nc2cc(N3CCN(C)CC3)nc(/C=C/c3ccccc3)n2)n[nH]1 [ENMD-2076] |  |  |  |  |  | > 30 µM (inactive) |  | > 30 µM (inactive) | > 30 µM (inactive) |  |  |  |  | > 30 µM (inactive)
OCCn1cc(-c2cnc3nnn(Cc4ccc5ncccc5c4)c3n2)cn1 [PF-04217903] |  | > 30 µM (inactive) | > 30 µM (inactive) | > 30 µM (inactive) | > 30 µM (inactive) | > 30 µM (inactive) | > 30 µM (inactive) |  | > 30 µM (inactive) |  | > 30 µM (inactive) | > 30 µM (inactive) | > 30 µM (inactive) | > 30 µM (inactive)
CC[C@@H]1C(=O)N(C)c2cnc(Nc3ccc(C(=O)N[C@H]4CC[C@H](N5CCN(CC6CC6)CC5)CC4)cc3OC)nc2N1C(C)C [VOLASERTIB] | > 30 µM (inactive) | > 30 µM (inactive) |  | > 30 µM (inactive) | > 30 µM (inactive) | > 30 µM (inactive) |  | > 30 µM (inactive) | > 30 µM (inactive) | > 30 µM (inactive) | > 30 µM (inactive) |  |  | 
O=C(Nc1cccc(Cl)c1)Nc1ncc(CCNc2ncnc3ccsc23)s1 [SNS-314] |  |  |  |  |  | > 30 µM (inactive) | > 30 µM (inactive) | > 30 µM (inactive) |  |  |  |  |  | 
COC(=O)N[C@@H](C)CNc1nccc(-c2cn(C(C)C)nc2-c2cc(Cl)cc(NS(C)(=O)=O)c2F)n1 [ENCORAFENIB] | > 30 µM (inactive) |  | > 30 µM (inactive) | > 30 µM (inactive) | > 30 µM (inactive) | > 30 µM (inactive) | > 30 µM (inactive) | > 30 µM (inactive) |  | > 30 µM (inactive) |  | > 30 µM (inactive) |  | 
CCS(=O)(=O)N1CC(CC#N)(n2cc(-c3ncnc4[nH]ccc34)cn2)C1 [BARICITINIB] | > 30 µM (inactive) | > 30 µM (inactive) |  | > 30 µM (inactive) | > 30 µM (inactive) | > 30 µM (inactive) | > 30 µM (inactive) |  | > 30 µM (inactive) | > 30 µM (inactive) |  | > 30 µM (inactive) | > 30 µM (inactive) | 
CO[C@H]1C[C@@H]2CC[C@@H](C)[C@@](O)(O2)C(=O)C(=O)N2CCCC[C@H]2C(=O)O[C@H]([C@H](C)C[C@@H]2CC[C@@H](OCCO)[C@H](OC)C2)CC(=O)[C@H](C)/C=C(\C)[C@@H](O)[C@@H](OC)C(=O)[C@H](C)C[C@H](C)/C=C/C=C/C=C/1C [EVEROLIMUS] | > 30 µM (inactive) |  |  | > 30 µM (inactive) |  |  | > 30 µM (inactive) |  | > 30 µM (inactive) | > 30 µM (inactive) | > 30 µM (inactive) |  |  | 
O=C(O)[C@]1(Cc2cccc(Nc3nccs3)n2)CC[C@@H](Oc2cccc(Cl)c2F)CC1 [MK-5108] | > 30 µM (inactive) |  |  | > 30 µM (inactive) | > 30 µM (inactive) | > 30 µM (inactive) | > 30 µM (inactive) |  | > 30 µM (inactive) | > 30 µM (inactive) | > 30 µM (inactive) |  | > 30 µM (inactive) | > 30 µM (inactive)
N[C@@H]1CCCN(c2c(/C=C3\SC(=O)NC3=O)cccc2-c2ccccc2)C1 |  |  |  |  |  | > 30 µM (inactive) | > 30 µM (inactive) |  |  | > 30 µM (inactive) |  |  |  | 
CN1CCN(c2ccc3nc(-c4c(N)c5c(F)cccc5[nH]c4=O)[nH]c3c2)CC1 [DOVITINIB] |  |  |  |  |  |  |  | > 30 µM (inactive) |  |  |  |  |  | 
Cc1ccc(NC(=O)c2ccc(CN3CC[C@H](N(C)C)C3)c(C(F)(F)F)c2)cc1Nc1nccc(-c2cncnc2)n1 [BAFETINIB] | > 30 µM (inactive) | > 30 µM (inactive) |  | > 30 µM (inactive) |  |  | > 30 µM (inactive) | > 30 µM (inactive) | > 30 µM (inactive) | > 30 µM (inactive) |  | > 30 µM (inactive) | 0.023 µM (active) | 
